# Patent US10035989B2, “Method for producing polyunsaturated fatty acids in transgenic plants” (BASF Plant Science GmbH, priority 2004, dated 2018)
# Where two headings read alike, the source gives them in different places.
# Experiments:
# [1] = system: ELO(XI) elongase; experiment: Expression of ELO(XI) in yeast (feeding, GLC of FAMEs); type: cell-based, Xenopus laevis; conditions: amounts fed: in each case 250 μM
# Procedure: (§1) The yeasts were subsequently plated onto complete uracil dropout minimal medium supplemented with 2% glucose.
# (§2) Fatty acid methyl esters (FAMEs) were prepared from the yeast cell sediments by acid methanolysis. […] The FAMEs were extracted by twice extracting with petroleum ether (PE). […] (holding).
# (§3) Thereafter, the FAMEs were analyzed via GLC.
# [2] = system: ELO(Ci) elongase; experiment: Expression of ELO(Ci) in yeast (feeding, GLC of FAMEs); type: cell-based, Ciona intestinalis; conditions: amounts fed: in each case 250 μM
# Procedure: The yeasts were subsequently plated onto complete uracil dropout minimal medium supplemented with 2% glucose. […] Fatty acid methyl esters (FAMEs) were prepared from the yeast cell sediments by acid methanolysis. […] The FAMEs were extracted by twice extracting with petroleum ether (PE). […] (holding). […] Thereafter, the FAMEs were analyzed via GLC.
# [3] = system: TL16y2 Δ5-elongase; experiment: Expression of TL16y2 in yeast (feeding experiments, GC); type: cell-based, Thraustochytrium ssp.
# Procedure: as §1
# (§4) The substrate specificity of BioTaurELO1 was determined after expression and feeding of various fatty acids (FIG. 6). […] After the fatty acids had been extracted from the yeasts, they were transmethylated and separated by gas chromatography. The elongation products originating from the two fatty acids which had been fed are identified by arrows.
# The functionality and substrate specificity of TL16y2 were determined after expression and feeding of various fatty acids. […] The feeding experiments were carried out in the same manner as described for BioTaurELO1. The substrates which have been fed can be detected in large amounts in all transgenic yeasts. […] This means that the gene TL16y2 has been expressed functionally.
# [4] = system: BioTaurELO1 Δ5-elongase; type: cell-based, Thraustochytrium aureum ATCC34304
# Procedure: as §1, §4
# [5] = system: OtElo2 (Δ6-elongase); type: cell-based, Ostreococcus tauri
# [6] = system: OtElo2.1 (Δ6-elongase); type: cell-based, Ostreococcus tauri
# [7] = system: OtDes6.1 (Δ6-desaturase); experiment: Substrate specificity of the desaturase OtDes6.1 in yeast (feeding, GLC of FAMEs); conditions: conversion rate of the substrate fed to yeast with pYES2-OtDes6.1; mean (n=3)
# Excerpt: The Saccharomyces cerevisiae strain 334 was transformed by electroporation (1500 v) with the vector pYES2.1-OtDes6.1. A yeast which was transformed with the blank vector pYES2 was used as the control. The transformed yeasts were selected on complete minimal dropout uracil medium (CMdum) agar plates supplemented with 2% glucose. After the selection, in each case three transformants were selected for the further functional expression.
# To express the OtDes6.1 desaturase, precultures of in each case 5 ml of dropout uracil CMdum liquid medium supplemented with 2% (w/v) raffinose were inoculated with the selected transformants and incubated for 2 days at 30° C., 200 rpm. 5 ml of CMdum liquid medium (without uracil) supplemented with 2% raffinose and 300 μm of various fatty acids were then inoculated with the precultures to an OD600 of 0.05. Expression was induced by addition of 2% (w/v) galactose. The cultures were incubated for a further 96 hours at 20° C. […]
# The yeasts which had been transformed with the vector pYES2-OtDes6.1 were cultured in minimal medium in the presence of the fatty acids detailed. […] Thereafter, the FAMEs were analyzed via GLC. […] The activity corresponds to the conversion rate calculated using the formula [substrate/(substrate+product)*100].
# [8] = system: biosynthesis of DHA (OmElo3, Euglena gracilis Δ4-desaturase, Phaeodactylum tricornutum Δ5-desaturase); experiment: Reconstitution of the synthesis of DHA in yeast by coexpressing OmElo3, EgD4 and PtD5; type: cell-based, Saccharomyces cerevisiae
# Procedure: The reconstitution of the biosynthesis of DHA (22:6 ω3) was carried out starting from EPA (20:5 ω3) or stearidonic acid (18:4 ω3) by coexpressing OmElo3 together with the Euglena gracilis Δ4-desaturase or the Phaeodactylum tricornutum Δ5-desaturase and the Euglena gracilis Δ4-desaturase. To this end, the expression vectors pYes2-EgD4 and pESCLeu-PtD5 were additionally constructed. The abovementioned yeast strain which is already transformed with pYes3-OmElo3 (SEQ ID NO: 55), was then transformed further with pYes2-EgD4, or simultaneously with pYes2-EgD4 and pESCLeu-PtD5. […] The cultures were subsequently incubated for a further 120 hours at 15° C.
# The additional introduction of the EEgΔ4-desaturase led to the conversion of 22:5 ω3 into 22:6 ω3 DHA. After coexpression of OmElo3 and EgD4, up to 3% DHA was detected in yeasts.
# In a further coexpression experiment, OmElo3, EgD4 and a Δ5-desaturase from P. tricomutum (PtD5) were expressed together. The transgenic yeasts were fed stearidonic acid (18:4 ω3) and analyzed (FIG. 4). OmElo3 elongated the fed fatty acid 18:4 ω3 to give 20:4 ω3 (60% elongation). The latter was desaturated by PtD5 to give 20:5 ω3. The PtD5 activity amounted to 15%. Furthermore, 20:5 ω3 was elongated by […] to give 22:5 ω3. Thereafter, the newly synthesized 22:5 ω3 was desaturated to give 22:6 ω3 (DHA). Up to 0.7% of DHA was obtained in these experiments.
# [9] = system: PtELO6 (Δ6-elongase); experiment: Substrate specificity of PtELO6 in yeast (feeding, GLC of FAMEs); type: cell-based, Phaeodactylum tricornutum; conditions: fatty acids fed to yeast pYES2-PtELO6
# [10] = system: OtElo1 (Δ5-elongase); type: cell-based, Ostreococcus tauri; conditions: yeast transformed with pOTE1 (Table 18)
# [11] = system: OtElo1.2 (Δ5-elongase); type: cell-based, Ostreococcus tauri; conditions: yeast transformed with pOTE1.2 (Table 18)
# [12] = system: TpELO3 (Δ6-elongase); experiment: Expression of TpELO3 in yeast (feeding, GLC of FAMEs); type: cell-based, Thalassiosira pseudonana
# Procedure: as §1, §2, §3
# [13] = system: OmELO2; experiment: Functional characterization of OmELO2 in yeast (fatty acid feeding, GLC of FAMEs); type: cell-based, Oncorhynchus mykiss; conditions: expression in yeast
# [14] = system: OmElo3 elongase; experiment: Functional characterization of OmELO3 in yeast (fatty acid feeding, GLC of FAMEs); type: cell-based, Oncorhynchus mykiss; conditions: expression in yeast, different substrates
# [15] = 250 μm fatty acid fed (Table 7)
# [16] = fatty acid fed to yeast expressing BioTaurELO1
molecule,measurement,setting,value
CCCCCCCCCCCCCCCC(=O)O [16:0],Conversion of the starting materials by ELO(XI) in %,[1],3%
same,Conversion of the starting materials by ELO(Ci) in %,[2],0%
"CCCCCC/C=C\CCCCCCCC(=O)O [16:1^Δ9, palmitoleic acid]",Conversion of the starting materials by ELO(XI) in %,[1],0%
same,Conversion of the starting materials by ELO(Ci) in %,[2],0%
CCCCCCCCCCCCCCCCCC(=O)O [18:0],Conversion of the starting materials by ELO(XI) in %,[1],2%
same,Conversion of the starting materials by ELO(Ci) in %,[2],0%
"CCCCC/C=C\C/C=C\CCCCCCCC(=O)O [18:2^Δ9,12, linoleic acid]",Conversion of the starting materials by ELO(XI) in %,[1],3%
same,Conversion of the starting materials by ELO(Ci) in %,[2],23%
"CCCCC/C=C\C/C=C\CC/C=C\CCCC(=O)O [18:3^Δ5,9,12, pinolenic acid (all-cis-5,9,12-octadecatrienoic acid)]",Conversion of the starting materials by ELO(XI) in %,[1],13%
same,Conversion of the starting materials by ELO(Ci) in %,[2],38%
"CCCCC/C=C\C/C=C\C/C=C\CCCCC(=O)O [18:3^Δ6,9,12, γ-linolenic acid]",conversion rate in %,[3]; [15],74.9%
same,Conversion of the starting materials by ELO(XI) in %,[1],12%
same,conversion rate,[4],65.28%
same,Conversion of the starting materials by ELO(Ci) in %,[2],10%
same,Conversion rate of OtElo2 (in %),[5],15.3%
same,Conversion rate of OtElo2.2 (in %),[6],55.7%
"CC/C=C\C/C=C\C/C=C\CCCCCCCC(=O)O [18:3^Δ9,12,15, α-linolenic acid]",Conversion of the starting materials by ELO(XI) in %,[1],3%
same,Activity in %,[7],64.6%
same,Conversion of the starting materials by ELO(Ci) in %,[2],25%
"CC/C=C\C/C=C\C/C=C\C/C=C\CCCCC(=O)O [18:4^Δ6,9,12,15, stearidonic acid]",conversion rate in %,[3]; [15],79.4%
same,Conversion of the starting materials by ELO(XI) in %,[1],20%
same,conversion rate,[4]; [16],65.66%
same,Conversion of the starting materials by ELO(Ci) in %,[2],3%
same,elongation of 18:4 ω3 to 20:4 ω3,"[8]; coexpression of OmElo3, EgD4 and PtD5, fed 18:4 ω3",60%
same,Conversion rate of OtElo2 (in %),[5]; yeast transformed with pOTE2 (Table 19),21.1%
same,Conversion rate of OtElo2.2 (in %),[6]; yeast transformed with pOTE2.1 (Table 19),70.4%
"CCCCC/C=C\C/C=C\C/C=C\CCCCCCC(=O)O [20:3^Δ8,11,14, dihomo-γ-linolenic acid]",conversion by PtELO6,[9],not converted
same,Conversion of the starting materials by ELO(XI) in %,[1],5%
same,Conversion of the starting materials by ELO(Ci) in %,[2],10%
"CC/C=C\C/C=C\C/C=C\CCCCCCCCCC(=O)O [20:3^Δ11,14,17]",conversion by PtELO6,[9],not converted
same,Conversion of the starting materials by ELO(XI) in %,[1],13%
same,Conversion of the starting materials by ELO(Ci) in %,[2],8%
"CCCCC/C=C\C/C=C\C/C=C\C/C=C\CCCC(=O)O [20:4^Δ5,8,11,14, arachidonic acid]",conversion by PtELO6,[9],not converted
same,conversion rate in %,[3]; [15],20.3%
same,Conversion of the starting materials by ELO(XI) in %,[1],15%
same,conversion rate,[4]; [16],14.47%
same,Conversion rate of OtElo1 (in %),[10],10.8 ± 0.6%
same,Conversion of the starting materials by ELO(Ci) in %,[2],10%
same,Conversion rate of OtElo1.2 (in %),[11],38.0%
"CC/C=C\C/C=C\C/C=C\C/C=C\C/C=C\CCCC(=O)O [20:5^Δ5,8,11,14,17, eicosapentaenoic acid]",conversion rate in %,[3]; 50 μm fatty acid fed,41%
same,conversion rate in %,[3]; [15],8%
same,Conversion of the starting materials by ELO(XI) in %,[1],10%
same,conversion rate,[4]; [16],22.01%
same,conversion rate,[4]; when feeding GLA and EPA together,9.99%
same,Conversion rate of OtElo1 (in %),[10],46.8 ± 3.6%
same,Conversion of the starting materials by ELO(Ci) in %,[2],15%
same,elongation of 20:5 ω3 to 22:5 ω3,"[8]; yeast with pYes3-OmElo3 and blank vector pYes2, fed 20:5 ω3",65%
same,Conversion rate of OtElo1.2 (in %),[11],68.6%
"CCCCCC=CCC=CCC=CCC=CCCCCCC(=O)O [22:4^Δ7,10,13,16, docosatetraenoic acid]",conversion by PtELO6,[9],not converted
same,Conversion of the starting materials by ELO(XI) in %,[1],0%
same,Conversion of the starting materials by ELO(Ci) in %,[2],0%
"CC/C=C\C/C=C\C/C=C\C/C=C\C/C=C\C/C=C\CCC(=O)O [22:6^Δ4,7,10,13,16,19, docosahexaenoic acid]",Conversion of the starting materials by ELO(XI) in %,[1],0%
same,Conversion of the starting materials by ELO(Ci) in %,[2],0%
"eicosadienoic acid [20:2^Δ11,14]",conversion by PtELO6,[9],not converted
"TpELO3: Δ6-elongase from Thalassiosira pseudonana, SEQ ID NO: 45 (protein, listed as Thalassiosira pseudonana, CDS (1)..(819): Delta-5 elongase) MDAYNAAMDKIGAAIIDWSDPDGKFRADREDWWLCDFRSAITIALIYIAFVILGSAVMQSLPAMDPYPIKFLYNVSQIFLCAYMTVEAGFLAYRNGYTVMPCNHFNVNDPPVANLLWLFYISKVWDFWDTIFIVLGKKWRQLSFLHVYHHTTIFLFYWLNANVLYDGDIFLTILLNGFIHTVMYTYYFICMHTKDSKTGKSLPIWWKSSLTAFQLLQFTIMMSQATYLVFHGCDKVSLRITIVYFVSLLSLFFLFAQFFVQSYMAPKKKKSA","% conversion, column 5",[12]; fed 250 μm arachidonic acid,0%
same,"% conversion, column 6",[12]; fed 250 μm eicosapentaenoic acid,0%
same,"% conversion, column 4",[12]; fed 250 μm stearidonic acid,85%
same,"% conversion, column 3",[12]; fed 250 μm γ-linolenic acid,75%
"OmELO2: gene product from Oncorhynchus mykiss, SEQ ID NO: 51, expressed in yeast (protein, Oncorhynchus mykiss; CDS (1)..(795): Delta-5 elongase) MASTWQSVQSMRQWILENGDKRTDPWLLVYSPMPVAIIFLLYLGVVWAGPKLMKRREPVDLKAVLIVYNFAMVCLSVYMFHEFLVTSLLSNYSYLCQPVDYSTSPLAMRMAKVCWWFFFSKVIELADTVFFILRKKNSQLTFLHVYHHGTMIFNWWAGVKYLAGGQSFFIGLLNTFVHIVMYSYYGLAALGPHTQKYLWWKRYLTSLQLLQFVLLTTHTGYNLFTECDFPDSMNAVVFAYCVSLIALFSNFYYQSYLNRKSKKT",elongase activity,[13],no elongase activity
"OmELO3: elongase from Oncorhynchus mykiss, SEQ ID NO: 53 (protein, Oncorhynchus mykiss; CDS (1)..(885): Delta-5 elongase) METFNYKLNMYIDSWMGPRDERVQGWLLLDNYPPTFALTVMYLLIVWMGPKYMRHRQPVSCRGLLLVYNLGLTILSFYMFYEMVSAVWHGDYNFFCQDTHSAGETDTKIINVLWWYYFSKLIEFMDTFFFILRKNNHQITFLHIYHHASMLNIWWFVMNWVPCGHSYFGASLNSFIHVLMYSYYGLSAVPALRPYLWWKKYITQVQLIQFFLTMSQTICAVIWPCDFPRGWLYFQIFYVITLIALFSNFYIQTYKKHLVSQKKEYHQNGSVASLNGHVNGVTPTETITHRKVRGD",elongase activity,[14],pronounced activity
